Measurements from patent US20080076746A1, “Method of Treating Fish and Crustaceans With a Tellurium Based Immunomodulator” (priority 2003, published 2008).
Entries after “also recorded” stand apart in the source; their conditions may differ.

Key:
[1] = tested on: tilapia PBL (peripheral blood leukocytes); assay: Cell toxicity in AS101-treated cell cultures (Blue staining); assay type: cell-based, Tilapia hybrids (Oreochromis niloticus X O. aureus); details: all AS101 doses, vs control
Method: PBL (peripheral blood leukocytes) were isolated from heparinized blood on a ficoll paque bed (Amersham Bioscience) and cultured as previously reported (9). For AS101 treatments, AS101 was added directly to the cultures at final concentration of 0.025 to 25 μg/ml, preferably 0.05 to 0.5 μg/ml.

Aeromonas salmonicida = assay: Stressed fish infected with Aeromonas salmonicida and immersed in soluble AS101; assay type: in vivo, goldfish (Carassius auratus); details: vs stressed infected fish not treated with AS101
Method: (§1) Fish were subjected to air exposure stress every 60 min for 90 sec during 4 hours (10). The fish were then divided into groups of 3, each separately held in 40 L plastic containers at 28°±2° C.

IL-10L = assay: Serum IL-10L levels in air-exposure stressed fish after AS101 bath immersion (ELISA); assay type: in vivo
Method: For in-vitro studies, AS101 was supplied as PBS solution, pH 7.4, at 4° C. For in-vivo experiments, AS101 powder was dissolved in the appropriate concentration in re-circulating water.
as §1
Fish blood was coagulated during 2 hours at room temperature, then centrifuged for 10 min at 1800×g. IL-10L levels were quantified in the collected sera using ELISA (Human Interleukin-10 ELISA Kit, pierce-endogen) according to manufacturer's instructions.

tilapia IL-10L = assay: AS101 effect on intracellular IL-10L levels of tilapia PBL cell cultures (Western blot); assay type: cell-based, Tilapia hybrids (Oreochromis niloticus X O. aureus); details: 0.5 μg/ml AS101; dose-dependant; FIG. 1
Method: For in-vitro studies, AS101 was supplied as PBS solution, pH 7.4, at 4° C. For in-vivo experiments, AS101 powder was dissolved in the appropriate concentration in re-circulating water. PBL (peripheral blood leukocytes) were isolated from heparinized blood on a ficoll paque bed (Amersham Bioscience) and cultured as previously reported (9). For AS101 treatments, AS101 was added directly to the cultures at final concentration of 0.025 to 25 μg/ml, preferably 0.05 to 0.5 μg/ml. PBL were lysed as previously reported (6). Samples were electrophoresed on 12% SDS-PAGE and blotted with anti-human-IL-10 mAb (Santa Cruz Biotechnology, Inc sc-8438) (1:660 dilution) and HRP-conjugate secondary Ab (Jackson Immuno-Research) (1:6600 dilution).

SMILES: Cl[TeH]1(Cl)(Cl)OCCO1 [AS101, ammonium trichloro [dioxyethylene-O, O′] telurate]
- cell death (cell toxicity) [1]: did not show elevated cell death beyond control
- rate of survival (Aeromonas salmonicida; FIG. 5): higher survival rates; also recorded: higher rate of survival
- number of wounds per fish (Aeromonas salmonicida; p=0.073, FIG. 4): significantly lower number of wounds per fish; also recorded: significantly less wounds
- serum IL-10L level (IL-10L; 2 hours post-stress, bath immersion in 20-ppm water solution, maximal effect, decrease from 719 in stressed fish, FIG. 3): 209 pg/mL
- serum IL-10L change (IL-10L; 6 hours after stress induction and bath immersion in different AS101 concentrations, 20 μg/ml most efficient): significant IL-10L decrease
- inhibition of intracellular tilapia IL-10L synthesis (tilapia IL-10L): complete inhibition
